Values quoted from earlier work, collected in patent US8309103B2, “Association of fluconazole-tinidazole for the treatment of vaginal infections, its composition, preparation process and usage” (Alparis, S.A. DE C.V., priority 2004, dated 2012).
Where two headings read alike, the source gives them in different places. Each block holds one compound with its values, some of them ahead of it.

Assays:
[1] = tested on: vaginal candidiasis; details: one dose of 150 mg; 1,017 patients with vaginal candidiasis
[2] = in vivo, po
[3] = tested on: Bacterial Vaginosis (Gardnerella vaginallis)
[4] = tested on: Trichomonas vaginalis; details: 2 grams in an only dose, sexual partner also involved

- Relationship between plasma and the vaginal tissue [2]: 0.94-1.1
Structure (SMILES): OC(Cn1cncn1)(Cn1cncn1)c1ccc(F)cc1F [fluconazole]
- Patients in whom well received and effective [1]: 91%

Structure (SMILES): CCS(=O)(=O)CCn1c([N+](=O)[O-])cnc1C [tinidazole]
- Curative rate ([3]; an only dose of 2 g tinidazole): 92%
- Curative rate ([3]; same amount (2 g) in a two-day scheme, other researchers): 51%

Structure (SMILES): Cc1ncc([N+](=O)[O-])n1CCO [metronidazole]
- Efficacy [4]: up to 85%

- Share of the dose taken excreted (essentially urinary) (in 120 hours): 50%
- Average plasmatic life (oral, one 2 g dose): about 25 hours
- Time at which the highest seric rates are obtained (oral, one 2 g dose): third
Structure (SMILES): Cc1ncc([N+](=O)[O-])n1CC(C)O (centres unmarked) [secnidazole]
